This is an account of results in patent publication US20040019430A1, “Methods and systems for analyzing complex biological systems” (priority 2001, published 2004).

The assay concerns Arabidopsis thaliana plants. In words: SOA1 phenotypic analysis of herbicide-treated Arabidopsis plants (MIC, Tmic, leaf traits). In kind it is in vivo. The following applies: for Dev. leafCurling / Dev. leafTwisting / Dev. matureLeafAnthocyanins / Dev. matureLeafChlorosis / Dev. matureLeafNecrosis / Dev. newLeafAnthocyanins / Dev. newLeafChlorosis / Dev. newLeafNecrosis / Dev. pointedLeaves: numeric value standardized to mock treated; for Dev. leafWidth: numeric value standardized to the average response for the mock treated tissues; for Characteristic symptoms (phenotype): herbicide treated Arabidopsis; for Symptom Class: three-week-old Arabidopsis plants treated with herbicide, phenotype classes of FIG. 12.

Regarding `O=C(O)Cn1c(=O)sc2cccc(Cl)c21` [Benazolin], the “Dev. tMic” value was determined as 2, the “Dev. leafCurling” value was 2, the “Dev. leafTwisting” value stood at 2 and the “Dev. matureLeafAnthocyanins” value was found to be 0. Besides, the “Dev. matureLeafChlorosis” value came out at 0, the “Dev. matureLeafNecrosis” value amounted to 0, the “Dev. newLeafAnthocyanins” value is given as 0 and the “Dev. newLeafChlorosis” value turned out to be 0. Also, the “Dev. newLeafNecrosis” value came out at 0, the “Dev. pointedLeaves” value is 0 and the “Dev. leafWidth” value is given as −2.
Turning to `CCNc1nc(Cl)nc(NC(C)C)n1` [Atrazine], the “Dev. tMic” value came to 1; the “Characteristic symptoms (phenotype)” value is “rapid and widespread leaf necrosis”; the “Dev. leafCurling” value is 1; the “Dev. leafTwisting” value was determined as 0. Further, the “Dev. matureLeafAnthocyanins” value turned out to be 0, the “Dev. matureLeafChlorosis” value is listed as 1, the “Dev. matureLeafNecrosis” value came to 4 and the “Dev. newLeafAnthocyanins” value was found to be 0. Besides, the “Dev. newLeafChlorosis” value is given as 1, the “Dev. newLeafNecrosis” value turned out to be 4, the “Dev. pointedLeaves” value came to 1 and the “Dev. leafWidth” value is −1.
Regarding `c1cc[n+]2c(c1)-c1cccc[n+]1CC2` [Diquat], the “Dev. tMic” value is listed as 2; the “Characteristic symptoms (phenotype)” value is “rapid and widespread leaf necrosis”; the “Dev. leafCurling” value was found to be 2; the “Dev. leafTwisting” value was determined as 0. The “Dev. matureLeafAnthocyanins” value came out at 0, the “Dev. matureLeafChlorosis” value is 1, the “Dev. matureLeafNecrosis” value came out at 4 and the “Dev. newLeafAnthocyanins” value is recorded as 0. Moreover, the “Dev. newLeafChlorosis” value is reported as 1, the “Dev. newLeafNecrosis” value amounted to 4, the “Dev. pointedLeaves” value stood at 1 and the “Dev. leafWidth” value is on record as −2. Also, the “Symptom Class” value was 7.
With `CCc1cnc(C2=NC(C)(C(C)C)C(=O)N2)c(C(=O)O)c1` (stereo not shown) [Imazethapyr], the “Dev. tMic” value came to 2, the “Characteristic symptoms (phenotype)” value is recorded as “anthocyanin accumulation in the older leaves accompanied by chlorosis of the newly emerging leaves”, the “Dev. leafCurling” value came to 1 and the “Dev. leafTwisting” value came out at 1. In addition, the “Dev. matureLeafAnthocyanins” value was found to be 3, the “Dev. matureLeafChlorosis” value stood at 0, the “Dev. matureLeafNecrosis” value is given as 0 and the “Dev. newLeafAnthocyanins” value is on record as 0. Also, the “Dev. newLeafChlorosis” value turned out to be 2, the “Dev. newLeafNecrosis” value was found to be 0, the “Dev. pointedLeaves” value was found to be 0 and the “Dev. leafWidth” value was determined as 0.
Turning to `CCc1cccc(C)c1N(C(=O)CCl)C(C)COC` (stereo not shown) [Metolachlor], the “Dev. tMic” value came to 2, the “Dev. leafCurling” value is 2, the “Dev. leafTwisting” value is recorded as 1 and the “Dev. matureLeafAnthocyanins” value worked out at 0. In addition, the “Dev. matureLeafChlorosis” value is 0, the “Dev. matureLeafNecrosis” value worked out at 3, the “Dev. newLeafAnthocyanins” value was 0 and the “Dev. newLeafChlorosis” value is 0. The “Dev. newLeafNecrosis” value was 3, the “Dev. pointedLeaves” value is 1 and the “Dev. leafWidth” value is −1.
In the case of `O=C(O)c1cc(Oc2ccc(C(F)(F)F)cc2Cl)ccc1[N+](=O)[O-]` [Acifluorfen], the “Dev. tMic” value is 1, the “Characteristic symptoms (phenotype)” value is on record as “Necrotic leaf flecks”, the “Dev. leafCurling” value worked out at 1 and the “Dev. leafTwisting” value turned out to be 0. In addition, the “Dev. matureLeafAnthocyanins” value was determined as 0, the “Dev. matureLeafChlorosis” value was found to be 0, the “Dev. matureLeafNecrosis” value is 1 and the “Dev. newLeafAnthocyanins” value stood at 0. In addition, the “Dev. newLeafChlorosis” value came to 0, the “Dev. newLeafNecrosis” value is reported as 3, the “Dev. pointedLeaves” value is 0 and the “Dev. leafWidth” value turned out to be 0.
For `CC(C)N1C(=O)c2ccccc2NS1(=O)=O` [Bentazon], the “Dev. tMic” value was determined as 1; the “Characteristic symptoms (phenotype)” value was “rapid and widespread leaf necrosis”; the “Dev. leafCurling” value turned out to be 2; the “Dev. leafTwisting” value turned out to be 0. For the same molecule, the “Dev. matureLeafAnthocyanins” value was found to be 0, the “Dev. matureLeafChlorosis” value is on record as 2, the “Dev. matureLeafNecrosis” value is listed as 4 and the “Dev. newLeafAnthocyanins” value is 0. For the same molecule, the “Dev. newLeafChlorosis” value stood at 2, the “Dev. newLeafNecrosis” value stood at 4, the “Dev. pointedLeaves” value was 1 and the “Dev. leafWidth” value was −2.
As for `C[n+]1ccc(-c2cc[n+](C)cc2)cc1` [Paraquat], the “Dev. tMic” value is 2; the “Characteristic symptoms (phenotype)” value is “rapid and widespread leaf necrosis”; the “Dev. leafCurling” value came to 2; the “Dev. leafTwisting” value was found to be 0. The “Dev. matureLeafAnthocyanins” value came to 0, the “Dev. matureLeafChlorosis” value came to 1, the “Dev. matureLeafNecrosis” value is recorded as 4 and the “Dev. newLeafAnthocyanins” value was 0. Besides, the “Dev. newLeafChlorosis” value was found to be 1, the “Dev. newLeafNecrosis” value is 4, the “Dev. pointedLeaves” value came to 1 and the “Dev. leafWidth” value is reported as −1. Besides, the “Symptom Class” value is 7.
Turning to `COc1nc(C)nc(NC(=O)NS(=O)(=O)c2ccccc2Cl)n1` [Chlorsulfuron], the “Dev. tMic” value is reported as 2, the “Characteristic symptoms (phenotype)” value was “anthocyanin accumulation in the older leaves accompanied by chlorosis of the newly emerging leaves”, the “Dev. leafCurling” value is 1 and the “Dev. leafTwisting” value came to 1. For the same molecule, the “Dev. matureLeafAnthocyanins” value stood at 3, the “Dev. matureLeafChlorosis” value came out at 2, the “Dev. matureLeafNecrosis” value was 0 and the “Dev. newLeafAnthocyanins” value stood at 0. Also, the “Dev. newLeafChlorosis” value turned out to be 2, the “Dev. newLeafNecrosis” value worked out at 0, the “Dev. pointedLeaves” value came to 0 and the “Dev. leafWidth” value is listed as −1.
With `O=C(O)COc1ccc(Cl)cc1Cl` [2,4-D], the “Dev. tMic” value was determined as 2, the “Dev. leafCurling” value is reported as 1, the “Dev. leafTwisting” value is listed as 2 and the “Dev. matureLeafAnthocyanins” value amounted to 1. Also, the “Dev. matureLeafChlorosis” value amounted to 2, the “Dev. matureLeafNecrosis” value is reported as 0, the “Dev. newLeafAnthocyanins” value was determined as 0 and the “Dev. newLeafChlorosis” value was found to be 1. In addition, the “Dev. newLeafNecrosis” value turned out to be 0, the “Dev. pointedLeaves” value worked out at 0, the “Dev. leafWidth” value is listed as −1 and the “Symptom Class” value is 5.
With `CN(C)C(=O)Nc1ccc(Cl)c(Cl)c1` [Diuron], the “Dev. tMic” value is given as 1; the “Characteristic symptoms (phenotype)” value was “rapid and widespread leaf necrosis”; the “Dev. leafCurling” value came out at 1; the “Dev. leafTwisting” value turned out to be 0. Besides, the “Dev. matureLeafAnthocyanins” value was found to be 0, the “Dev. matureLeafChlorosis” value turned out to be 2, the “Dev. matureLeafNecrosis” value came to 4 and the “Dev. newLeafAnthocyanins” value was found to be 0. The “Dev. newLeafChlorosis” value came to 2, the “Dev. newLeafNecrosis” value is 4, the “Dev. pointedLeaves” value came to 1 and the “Dev. leafWidth” value is listed as −2. Further, the “Symptom Class” value is recorded as 7.
